The pIC50 is −log10 of the IC50, conventionally taken in molar units.

Each structure is given as a SMILES string. pIC50: −log10 of the molar value. Where a name gives a salt, the structure may show the parent alone. Read-outs that look alike come from different tables or passages of the source.

For assay [1], the system named is PAXF1657 KO Clone #4. The experiment in a line: 7-day cellular proliferation assay (CellTiter-Glo), PAXF1657 KO Clone #4. The following applies: 168 h, 7-day, read-out: 7-day proliferation assay: IC50 GeoMean (uM) [Cell Line: PAXF1657 KO Clone #4]. The class given is cell-based. Summed up:
(§1)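 Seven-day growth in PAXF1657 lines engineered for GRK2 overexpression or knockout, measured by CellTiter-Glo; compounds tested at 30 μM-0.0002 μM final and replenished once at day 3.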
For orientation: In ATP-based viability assays light output follows the ATP content of the culture.

Assay [2] concerns the target T1, GRK2 (Homo sapiens, UniProt P25098).
T1 sequence (P25098 1-689): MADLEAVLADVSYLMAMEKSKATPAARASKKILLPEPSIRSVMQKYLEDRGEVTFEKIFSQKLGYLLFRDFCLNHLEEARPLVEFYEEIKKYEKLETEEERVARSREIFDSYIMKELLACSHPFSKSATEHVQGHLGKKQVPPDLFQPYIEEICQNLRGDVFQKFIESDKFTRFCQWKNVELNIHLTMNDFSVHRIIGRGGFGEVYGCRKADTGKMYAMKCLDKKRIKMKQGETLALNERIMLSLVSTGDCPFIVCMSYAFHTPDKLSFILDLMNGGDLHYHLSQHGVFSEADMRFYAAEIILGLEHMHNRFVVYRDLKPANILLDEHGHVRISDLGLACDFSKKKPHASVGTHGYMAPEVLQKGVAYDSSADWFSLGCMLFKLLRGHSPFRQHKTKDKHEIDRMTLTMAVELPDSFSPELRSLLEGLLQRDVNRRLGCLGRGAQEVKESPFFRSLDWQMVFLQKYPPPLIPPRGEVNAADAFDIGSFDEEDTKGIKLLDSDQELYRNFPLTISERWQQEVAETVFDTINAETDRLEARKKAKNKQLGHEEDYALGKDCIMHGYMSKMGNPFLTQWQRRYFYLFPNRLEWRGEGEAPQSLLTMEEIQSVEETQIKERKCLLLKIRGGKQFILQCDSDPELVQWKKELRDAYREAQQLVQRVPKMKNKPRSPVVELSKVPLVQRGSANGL
The experiment in a line: GRK2 Inhibition Assay (TR-FRET, Example 1). The assay is classed as biochemical. The following applies: for IC50: TR-FRET, 7 μM ATP, read-out: Enzymatic GRK2 Assay: IC50 (nM) (Example 1); for pIC50: Table 4, Example 1 assay, read-out: Enzymatic GRK2 IC50: Av IC50 GRK2. How it is done: Assay: GRK2 enzyme (1 nM final concentration) was diluted in 25 mM HEPES, 10 mM MgCl2, 2 mM DTT, 0.01% Tween-20, and 1 mM EGTA. Then the GRK2 mixture was added into ProxiPlate-384 white plate and pre-incubated for 30 min with test compounds at room temperature. ATP (7 μM final concentration) and Ulight TopoIIα (50 nM final concentration) were added into the assay plate to initiate the reaction and the mixture was incubated at room temperature for 90 min. Then, Eu anti-TopoIIα (0.12 nM final concentration), BSA (0.01% final concentration), and EDTA (11 mM final concentration) in LANCE assay buffer were added into each well. After 60 min incubation time at room temperature, TR-FRET signal was measured by EnVision plate reader.
(Time-resolved FRET reads energy transfer from a long-lived donor to a nearby acceptor.)

Assay [3] has as its target T1, GRK2. Kind of assay: GRK2 Degradation Assay and Western Blot in PAXF1657 cells. The assay is classed as cell-based. Details: endogenous in cells; host or cells: PAXF1657. The following applies: for DC50: PAXF1657, 24 h, read-out: Degradation Assay - Full Dose Response: IC50 (uM) [cell line: PAXF1657, time point: 24 h]. Summed up:
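PAXF1657 cells grown to 70% confluency, then treated with compounds at 0–10 μM for 6 to 24 h at 37 °C. Lysates in PBS with 1% NP40 run on SDS-PAGE. GRK2 protein detected by western blot with β-actin as loading reference, using ECL chemiluminescence.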
In general terms: A western blot detects proteins with antibodies after separation by electrophoresis.

Assay [4] concerns PAXF1657 EV. The experiment in a line: 7-day cellular proliferation assay (CellTiter-Glo), PAXF1657 EV. The class given is cell-based. The following applies: 168 h, 7-day, read-out: 7-day proliferation assay: IC50 GeoMean (uM) [Cell Line: PAXF1657 EV]. The gist of the method:
as §1

The mark [5] stands for this setting: 0.3 uM, PAXF1657 EV, 24 hrs, read-out: % GRK2 degradation at 0.3 uM in PAXF1657 EV (24 hrs).
Setting [6] is: 1 uM, PAXF1657 EV, 24 hrs, read-out: % GRK2 degradation at 1 uM in PAXF1657 EV (24 hrs).
Setting [7] is: 3 uM, PAXF1657 EV, 24 hrs, read-out: % GRK2 degradation at 3 uM in PAXF1657 EV (24 hrs).
The mark [8] stands for this setting: Conc 0.3 uM, read-out: Degradation Assay - 3 point: Degradation (%).
The mark [9] stands for this setting: Conc 1 uM, read-out: Degradation Assay - 3 point: Degradation (%).
Where [10] appears, read: Conc 3 uM, read-out: Degradation Assay - 3 point: Degradation (%).

For `C[C@@H](NC(=O)c1cccc(NCc2nnc(-c3ccncn3)n2C)c1)c1cccc(OCCCCCCOCCOCCOCCCCCC(=O)Nc2cccc3c2CN(C2CCC(=O)NC2=O)C3=O)c1` (stereo partly drawn) [Compound D57, N-((1R)-1-(3-((6-(2-(2-((6-((2-(2,6-dioxopiperidin-3-yl)-1-oxoisoindolin-4-yl)amino)-6-oxohexyl)oxy)ethoxy)ethoxy)hexyl)oxy)phenyl)ethyl)-3-(((4-methyl-5-(pyrimidin-4-yl)-4H-1,2,4-triazol-3-yl)methyl)amino)benzamide], the results for the IC50 in assay [1], in assay [2] and in assay [4] were greater than 10 µM, less than 100 nM and greater than 10 µM, respectively. In addition, in assay [3] (setting [5]), the inhibition at 0.3 µM worked out at 70%. For the same compound, the inhibition at 1 µM in assay [3] (setting [6]) was 82%. In assay [3] (setting [7]), the inhibition at 3 µM was 85%.
For `Cn1c(CNc2cccc(C(=O)NCc3cccc(OCCCCCn4cc(CCCC(=O)Nc5cccc6c5CN(C5CCC(=O)NC5=O)C6=O)nn4)c3)c2)nnc1-c1ccncn1` (stereo not drawn) [Compound D59], the IC50 in assay [1] is greater than 10 µM; in assay [2], less than 100 nM; in assay [4], greater than 10 µM. In addition, the inhibition at 0.3 µM in assay [3] (setting [5]) was 33%. For the same compound, in assay [3] (setting [6]), the inhibition at 1 µM stood at 18%. Further, the inhibition at 3 µM in assay [3] (setting [7]) came to 53%.
For the compound `Cn1c(CNc2cccc(C(=O)NCc3cccc(OCCCCCCn4cc(CCCC(=O)Nc5cccc6c5CN(C5CCC(=O)NC5=O)C6=O)nn4)c3)c2)nnc1-c1ccncn1` (stereo not drawn) [Compound D63], the results for the IC50 in assay [1], in assay [2] and in assay [4] were greater than 10 µM, less than 100 nM and greater than 10 µM, respectively. Moreover, the inhibition at 0.3 µM in assay [3] (setting [5]) worked out at 34%. Moreover, the inhibition at 1 µM in assay [3] (setting [6]) was found to be 55%. For the same compound, in assay [3] (setting [7]), the inhibition at 3 µM worked out at 68%.
On to `Cn1c(CNc2cccc(C(=O)NCc3cccc(OCCCCCOCCCOCC(=O)Nc4cccc5c4CN(C4CCC(=O)NC4=O)C5=O)c3)c2)nnc1-c1ccncn1` (stereo not drawn) [Compound D64, N-(3-((5-(3-(2-((2-(2,6-dioxopiperidin-3-yl)-1-oxoisoindolin-4-yl)amino)-2-oxoethoxy)propoxy)pentyl)oxy)benzyl)-3-(((4-methyl-5-(pyrimidin-4-yl)-4H-1,2,4-triazol-3-yl)methyl)amino)benzamide], for which the IC50 in assay [1] was greater than 10 µM; in assay [2], less than 100 nM; in assay [4], greater than 10 µM. Moreover, the “% GRK2 degradation at 0.1 uM in PAXF1657 EV (24 hrs)” value in assay [3] (0.1 uM, PAXF1657 EV, 24 hrs) amounted to 26%. Moreover, the inhibition at 0.3 µM in assay [3] (setting [5]) is 62%. The inhibition at 1 µM in assay [3] (setting [6]) was found to be 79%. In addition, the inhibition at 3 µM in assay [3] (setting [7]) came to 83%. Also, the “% GRK2 degradation at 10 uM in PAXF1657 EV (24 hrs)” value in assay [3] (10 uM, PAXF1657 EV, 24 hrs) came to 77%. In assay [3] (24-hour treatment in PAXF1657 cells), the “GRK2 degradation, dose dependence (FIGS. 1A-1D)” value was “Dose dependent”.
With `Cc1ncsc1-c1ccc(CNC(=O)[C@@H]2C[C@@H](O)CN2C(=O)C(NC(=O)CCCCc2cn(CCCCCCOc3cccc(CNC(=O)c4cccc(NCc5nnc(-c6ccncn6)n5C)c4)c3)nn2)C(C)(C)C)cc1` (stereo partly drawn) [Compound D84], the IC50 in assay [2] is less than 100 nM.
Same read-out and setting: for `Cc1ncsc1-c1ccc(CNC(=O)[C@@H]2C[C@@H](O)CN2C(=O)[C@@H](NC(=O)CCCCCOCCOCCOCCCCCCOc2ccc(F)c(CNC(=O)c3cccc(NCc4nnc(-c5ccncn5)n4C)c3)c2)C(C)(C)C)cc1` [Compound D88, (2S,4R)-1-((S)-2-(tert-butyl)-22-(4-fluoro-3-((3-(((4-methyl-5-(pyrimidin-4-yl)-4H-1,2,4-triazol-3-yl)methyl)amino)benzamido)methyl)phenoxy)-4-oxo-10,13,16-trioxa-3-azadocosan-1-oyl)-4-hydroxy-N-(4-(4-methylthiazol-5-yl)benzyl)pyrrolidine-2-carboxamide] the value was 100 to 1000 nM; for `Cc1ncsc1-c1ccc(CNC(=O)[C@@H]2C[C@H](O)CN2C(=O)[C@@H](NC(=O)CCCCCOCCOCCOCCCCCCOc2cccc(CNC(=O)c3cccc(NCc4nnc(-c5ccncn5)n4C)c3)c2)C(C)(C)C)cc1` [Compound D89], less than 100 nM.
On to `C[C@H](NC(=O)c1cccc(NCc2nnc(-c3ccncn3)n2C)c1)c1ccc(OCCCCN2CCN(c3ccc4c(c3)CN(C3CCC(=O)NC3=O)C4=O)CC2)cc1` (stereo partly drawn) [Compound D117, N-((1S)-1-(4-(4-(4-(2-(2,6-dioxopiperidin-3-yl)-1-oxoisoindolin-5-yl)piperazin-1-yl)butoxy)phenyl)ethyl)-3-((4-methyl-5-(pyrimidin-4-yl)-4H-1,2,4-triazol-3-yl)methylamino)benzamide hydrochloride], for which the pIC50 in assay [2] was less than 6.00. Moreover, the inhibition at 0.3 µM in assay [3] (setting [8]) is 12.3%. In assay [3] (setting [9]), the inhibition at 1 µM was -20.5%. Besides, the inhibition at 3 µM in assay [3] (setting [10]) was -4.97%.
`C[C@H](NC(=O)c1cccc(NCc2nnc(-c3ccncn3)n2C)c1)c1ccc(OCCCN2CCN(c3ccc4c(c3)CN(C3CCC(=O)NC3=O)C4=O)CC2)cc1` (stereo partly drawn) [Compound D118, N-((1S)-1-(4-(3-(4-(2-(2,6-dioxopiperidin-3-yl)-1-oxoisoindolin-5-yl)piperazin-1-yl)propoxy)phenyl)ethyl)-3-((4-methyl-5-(pyrimidin-4-yl)-4H-1,2,4-triazol-3-yl)methylamino)benzamide hydrochloride]: in assay [2], the pIC50 was less than 6.00. Moreover, the inhibition at 0.3 µM in assay [3] (setting [8]) is -13.1%. In addition, in assay [3] (setting [9]), the inhibition at 1 µM was 3.23%. Further, the inhibition at 3 µM in assay [3] (setting [10]) worked out at 5.18%.
Regarding `C[C@@H](NC(=O)c1cccc(NCc2nnc(-c3ccncn3)n2C)c1)c1cccc(OCCCCCCOCCN2CCN(c3cc4c(cc3F)C(=O)N(C3CCC(=O)NC3=O)C4=O)CC2)c1` (stereo partly drawn) [Compound D134, N-((1R)-1-(3-(6-(2-(4-(2-(2,6-dioxopiperidin-3-yl)-6-fluoro-1,3-dioxoisoindolin-5-yl)piperazin-1-yl)ethoxy)hexyloxy)phenyl)ethyl)-3-((4-methyl-5-(pyrimidin-4-yl)-4H-1,2,4-triazol-3-yl)methylamino)benzamide], the pIC50 in assay [2] is 7.52. Further, the inhibition at 0.3 µM in assay [3] (setting [8]) stood at 64.1%. In addition, the inhibition at 1 µM in assay [3] (setting [9]) was 82.6%. For the same compound, the inhibition at 3 µM in assay [3] (setting [10]) was 86.7%. Moreover, in assay [3], the DC50 turned out to be 0.29 µM.
The corresponding values for `C[C@@H](NC(=O)c1cccc(NCc2nnc(-c3ccncn3)n2C)c1)c1cccc(OCCCCCCOCCOCCN2CCN(c3ccc4c(c3)CN(C3CCC(=O)NC3=O)C4=O)CC2)c1` (stereo partly drawn) [Compound D135, N-((1R)-1-(3-(6-(2-(2-(4-(2-(2,6-dioxopiperidin-3-yl)-1-oxoisoindolin-5-yl)piperazin-1-yl)ethoxy)ethoxy)hexyloxy)phenyl)ethyl)-3-((4-methyl-5-(pyrimidin-4-yl)-4H-1,2,4-triazol-3-yl)methylamino)benzamide] are 7.63, 82.2%, 84.2%, 84.3% and 0.06 µM.
